Biological target: T1, FLT3 kinase (Homo sapiens, UniProt P36888)
T1 construct: purchased SignalChem
T1 sequence (P36888 27-993): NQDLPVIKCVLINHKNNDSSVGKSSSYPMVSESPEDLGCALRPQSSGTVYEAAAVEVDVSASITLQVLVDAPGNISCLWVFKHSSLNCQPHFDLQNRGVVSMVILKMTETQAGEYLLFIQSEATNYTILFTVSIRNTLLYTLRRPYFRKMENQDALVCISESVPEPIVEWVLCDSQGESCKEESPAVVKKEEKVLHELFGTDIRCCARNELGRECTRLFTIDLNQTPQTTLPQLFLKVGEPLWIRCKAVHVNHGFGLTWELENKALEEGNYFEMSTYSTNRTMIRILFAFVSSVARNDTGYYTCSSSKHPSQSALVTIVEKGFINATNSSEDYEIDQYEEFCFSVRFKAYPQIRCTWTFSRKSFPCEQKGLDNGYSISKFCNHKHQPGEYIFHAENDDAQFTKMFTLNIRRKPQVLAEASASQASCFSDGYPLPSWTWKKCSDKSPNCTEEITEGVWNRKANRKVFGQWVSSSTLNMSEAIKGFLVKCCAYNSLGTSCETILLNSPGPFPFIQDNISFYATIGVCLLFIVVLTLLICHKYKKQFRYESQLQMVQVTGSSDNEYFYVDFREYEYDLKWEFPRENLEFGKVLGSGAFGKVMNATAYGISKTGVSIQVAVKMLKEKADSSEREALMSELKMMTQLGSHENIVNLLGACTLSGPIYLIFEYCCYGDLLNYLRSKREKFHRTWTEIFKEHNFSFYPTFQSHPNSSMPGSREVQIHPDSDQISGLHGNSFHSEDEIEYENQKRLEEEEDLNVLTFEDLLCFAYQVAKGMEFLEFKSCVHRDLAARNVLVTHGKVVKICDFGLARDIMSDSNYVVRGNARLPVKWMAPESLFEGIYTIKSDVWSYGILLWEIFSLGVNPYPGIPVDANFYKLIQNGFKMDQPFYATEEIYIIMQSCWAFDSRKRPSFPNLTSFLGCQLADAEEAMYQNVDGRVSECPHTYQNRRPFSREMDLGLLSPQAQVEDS
Assay: FLT3 kinase assay (AlphaScreen)
Type: biochemical
Conditions: read-out: Ranking of IC50 values, FLT3
Procedure, shortened: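 AlphaScreen detection of biotin-poly(Glu4:Tyr1) phosphorylation by 1.5 ng recombinant FLT3 (10 μM ATP, pH 7.0 MOPS, 10 mM MgCl2; 30 °C, 30 min, EDTA quench). IC50 values derived from serially diluted compound tested in duplicate.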

| Structure (SMILES) | IC50 |
| --- | --- |
| Cn1ncc2ccc(-c3n[nH]c4c3Cc3sc(-c5ccc(N6CCOCC6)nc5)cc3-4)cc21 [Compound 82, 4-(5-(3-(1-methyl-1H-indazol-6-yl)-1,4-dihydro-thieno[2′,3′:4,5]cyclopenta [1,2-c]pyrazol-6-yl)pyridin-2-yl)morpholine] | 1 to 10 nM |
| CN1CCN(Cc2ccc(-c3cc4c(s3)Cc3c(-c5ccc6cn[nH]c6c5)n[nH]c3-4)cc2)CC1 [Compound 83, 3-(1H-indazol-6-yl)-6-(4-((4-methylpiperazin-1-yl)methyl)phenyl)-1,4-dihydrothieno[2′,3′:4,5] cyclopenta[1,2-c]pyrazole] | < 1 nM |
| CN1CCN(Cc2ccc(-c3cc4c(s3)Cc3c(-c5ccc6cnn(C)c6c5)n[nH]c3-4)cc2)CC1 [Compound 84, 3-(1-methyl-1H-indazol-6-yl)-6-(4-((4-methylpiperazin-1-yl)methyl)phenyl)-1,4-dihydrothieno [2′,3′:4,5]cyclopenta [1,2-c]pyrazole] | < 1 nM |
| CN1CCN(c2cc(-c3cc4c(s3)Cc3c(-c5ccc6cnn(C)c6c5)n[nH]c3-4)ccn2)CC1 [Compound 87, 3-(1-methyl-1H-indazol-6-yl)-6-(2-(4-methyl-piperazin-1-yl)pyridin-4-yl)-1,4-dihydrothieno [2′,3′:4,5]cyclopenta [1,2-c]pyrazole] | < 1 nM |
| Cc1n[nH]c2cc(-c3n[nH]c4c3Cc3sc(-c5ccc(CN6CCOCC6)cc5)cc3-4)ccc12 [Compound 81, 4-(4-(3-(3-methyl-1H-indazol-6-yl)-1,4-dihydro-thieno[2′,3′:4,5]cyclopenta [1,2-c]pyrazol-6-yl)benzyl)morpholine] | 1 to 10 nM |
| Cn1ncc2ccc(-c3n[nH]c4c3Cc3sc(-c5ccnc(Cl)c5)cc3-4)cc21 [Compound 86, 6-(2-chloropyridin-4-yl)-3-(1-methyl-1H-indazol-6-yl)-1,4-dihydrothieno [2′,3′:4,5]cyclopenta [1,2-c]pyrazole] | 1 to 10 nM |
| COc1ccc(-c2cc3c(s2)Cc2c(-c4ccc5cnn(C)c5c4)n[nH]c2-3)cn1 [Compound 4, 6-(6-methoxypyridin-3-yl)-3-(1-methyl-1H-indazol-6-yl)-1,4-dihydrothieno [2′,3′:4,5]cyclopenta[1,2-c] pyrazole] | 1 to 10 nM |
| CN1CCN(c2ccc(-c3cc4c(s3)Cc3c(-c5ccc6cnn(C)c6c5)n[nH]c3-4)cn2)CC1 [Compound 85, 3-(1-methyl-1H-indazol-6-yl)-6-(6-(4-methyl-piperazin-1-yl)pyridin-3-yl)-1,4-dihydrothieno [2′,3′:4,5]cyclopenta [1,2-c]pyrazole] | < 1 nM |

Continued, values first:

| IC50 | Structure (SMILES) |
| --- | --- |
| 1 to 10 nM | Cn1ncc2ccc(-c3n[nH]c4c3Cc3sc(-c5ccc(CN6CCOCC6)cc5OC(F)(F)F)cc3-4)cc21 [Compound 90, 4-(4-(3-(1-methyl-1H-indazol-6-yl)-1,4-dihydro-thieno[2′,3′:4,5]cyclopenta [1,2-c]pyrazol-6-yl)-3-(trifluoromethoxy)benzyl) morpholine] |
| 1 to 10 nM | Cn1ncc2ccc(-c3n[nH]c4c3Cc3sc(-c5ccc(CN6CCOCC6)c(F)c5F)cc3-4)cc21 [Compound 88, 4-(2,3-difluoro-4-(3-(1-methyl-1H-indazol-6-yl)-1,4-dihydrothieno [2′,3′:4,5]cyclopenta [1,2-c]pyrazol-6-yl)benzyl)morpholine] |
| < 1 nM | Cn1ncc2ccc(-c3n[nH]c4c3Cc3sc(-c5ccc(N)nc5)cc3-4)cc21 [Compound 92, 5-(3-(1-methyl-1H-indazol-6-yl)-1,4-dihydro-thieno[2′,3′:4,5]cyclopenta [1,2-c]pyrazol-6-yl) pyridin-2-amine] |
| < 1 nM | CN(C)Cc1ccc(-c2cc3c(s2)Cc2c(-c4ccc5cnn(C)c5c4)n[nH]c2-3)cc1 [Compound 94, N,N-dimethyl-1-(4-(3-(1-methyl-1H-indazol-6-yl)-1,4-dihydrothieno [2′,3′:4,5]cyclopenta [1,2-c]pyrazol-6-yl)phenyl)methanamine] |
| 1 to 10 nM | CN(C)Cc1ccc(-c2cc3c(s2)Cc2c(-c4ccc5cnn(C)c5c4)n[nH]c2-3)cn1 [Compound 93, N,N-dimethyl-1-(5-(3-(1-methyl-1H-indazol-6-yl)-1,4-dihydrothieno [2′,3′:4,5]cyclopenta [1,2-c]pyrazol-6-yl)pyridin-2-yl)methanamine] |
| 1 to 10 nM | Cn1nnc2ccc(-c3n[nH]c4c3Cc3sc(-c5ccc(CN6CCOCC6)cc5)cc3-4)cc21 [Compound 89, 4-(4-(3-(1-methyl-1H-benzo[d][1,2,3]triazol-6-yl)-1,4-dihydrothieno [2′,3′:4,5]cyclopenta [1,2-c]pyrazol-6-yl)benzyl)morpholine] |
| 1 to 10 nM | Cc1cc(CN2CCOCC2)ccc1-c1cc2c(s1)Cc1c(-c3ccc4cnn(C)c4c3)n[nH]c1-2 [Compound 91, 4-(3-methyl-4-(3-(1-methyl-1H-indazol-6-yl)-1,4-dihydrothieno [2′,3′:4,5]cyclopenta [1,2-c]pyrazol-6-yl)benzyl)morpholine] |

From patent US12448394B2, “Heterocyclic pyrazole derivatives as type III receptor tyrosine kinase inhibitors” (DEVELOPMENT CENTER FOR BIOTECHNOLOGY, priority 2019, dated 2025)
